Measured values from article PMC9375521 (Protein Science : A Publication of the Protein Society, 2022).

Target: SARS‐CoV‐2 nsp10–nsp16 complex (Severe acute respiratory syndrome coronavirus 2, UniProt P0DTD1)
Experiment: nsp10–nsp16 radiometric MTase assay, IC50 determination
Assay type: biochemical

## Nc1ncnc2c1ncn2[C@@H]1O[C@H](CSCC[C@H](N)C(=O)O)[C@@H](O)[C@H]1O [SAH, S‐adenosylhomocysteine]
  IC50: 2.2 ± 0.2 µM
Radiometric assay, mean ± SD, N = 3
  Hill slope: 0.6 ± 0.1
